Results from US11229614B2, “Supramolecular hydrogel applications to the carotid bodies to treat hypertension and sleep apnea in obesity” (THE JOHNS HOPKINS UNIVERSITY, priority 2017, dated 2022).
Like-named read-outs stand apart in the source and are kept apart here.

What was measured:
C57BL/6J mice = format: in vivo
Experimental: Blood pressure telemetry (FIG. 2) and sleep studies in mice. […] Then blood pressure was measured at baseline (Day 0). The leptin osmotic pump was implanted SC to deliver 120 μg/day of the hormone, which increased leptin levels to 40-50 ng/ml which corresponded to plasma leptin levels in severely obese mice. Blood pressure measured after 2 days of leptin infusion (Day 2) followed by removal of the osmotic pump. On Day 5, the carotid artery bifurcation was exposed and co-assembled FTY720-PA filamentous nanostructures were applied bilaterally (5 μg/side). […] The leptin osmotic pump was reinserted on Day 9 and blood pressure was measured after two days of leptin infusion on Day 11. The pump was removed on Day 12 and reinserted on Day 20 followed by blood pressure measurement on Day 22. […] Leptin increased mean arteria blood pressure by 13±6 mm Hg and this effect was abolished by FTY720. […] Allowing 10% attrition rate, it will require 28 male (14 DIO and 14 lean) and 28 female C57BL/6J mice (14 DIO and 14 lean).

[1] = humans; cited from earlier work
[2] = Maximum solubility at pH 7.4; format: physicochemical
[3] = mice; cited from earlier work

Row | solubility [2] [µM] | Compound | increase of mean arterial blood pressure (C57BL/6J mice; leptin infusion) [mm Hg] | half-life [1] [h] | leptin-induced hypertension (C57BL/6J mice; FTY720 in Matrigel at 0.3 mg/kg/day applied to CB (FIG. 2)) | leptin-induced hypertension (C57BL/6J mice; administered to CB locally) | effect on leptin-induced increase of mean arterial blood pressure (C57BL/6J mice; mouse, in vivo) | half-life [3] [h]
1 |  | Leptin: hormone delivered by SC osmotic pump to induce hypertension | 13±6 |  |  |  |  | 
2 | 81 | CCCCCCCCc1ccc(CCC(N)(CO)CO)cc1.Cl [FTY720, 2-Amino-2-[2-(4-octyl-phenyl)-ethyl]-propane-1,3-diol hydrochloride] |  | 170 | abolished leptin-induced hypertension | abolished leptin-induced hypertension | abolished | 9
